Calls of active or inactive are those of the source. No cut-off for these calls is given here.
Key:
CCRF-CEM = assay: Antioxidant activity against diethyl maleate-induced intracellular ROS accumulation in human CEM cells at 5 uM pretreated for 1 hr before diethyl maleate challenge measured after 30 mins by flow cytometry; type: functional
Bos taurus = organism: Bos taurus; assay: Antioxidant activity against AAPH-induced lipid peroxidation in bovine heart mitochondrial membrane at 50 uM by spectrofluorimetric analysis; type: functional; conditions: Mitochondria

| SMILES | Activity (CCRF-CEM) [%] | Activity (Bos taurus) |
| --- | --- | --- |
| Cc1nc2c(c(CC[C@](C)(O)CCC[C@H](C)CCC[C@H](C)CCCC(C)C)c1O)CCN2C | 2 | Active |
| Cc1nc2c(c(C)c1O)CCN2C | 75 | – |
| Cc1c(C)c2c(c(C)c1O)CC[C@@](C)(CCC[C@H](C)CCC[C@H](C)CCCC(C)C)O2 [ALPHA-TOCOPHEROL] | 65 | – |

From ChEMBL document CHEMBL1268929, “Design, synthesis, and evaluation of an α-tocopherol analogue as a mitochondrial antioxidant” (2010)
